Reference: paper PMC10840383, “Clinical features, functional consequences, and rescue pharmacology of missense GRID1 and GRID2 human variants” (Human Molecular Genetics, 2023)
Numbering of substitutions follows the chain as printed.

Experiments:
GluD1-S647F = biological target: T1, GluD1-S647F (Homo sapiens, UniProt Q9ULK0, S647F); assay: TEVC of constitutive current, Xenopus oocytes expressing GluD1-S647F; format: cell-based; conditions: positive = increase, negative = decrease of activity
T1 construct: expressed in transfected cells; host or cells: Xenopus laevis oocytes injected with cRNA
T1 sequence (Q9ULK0 21-1009 S647F): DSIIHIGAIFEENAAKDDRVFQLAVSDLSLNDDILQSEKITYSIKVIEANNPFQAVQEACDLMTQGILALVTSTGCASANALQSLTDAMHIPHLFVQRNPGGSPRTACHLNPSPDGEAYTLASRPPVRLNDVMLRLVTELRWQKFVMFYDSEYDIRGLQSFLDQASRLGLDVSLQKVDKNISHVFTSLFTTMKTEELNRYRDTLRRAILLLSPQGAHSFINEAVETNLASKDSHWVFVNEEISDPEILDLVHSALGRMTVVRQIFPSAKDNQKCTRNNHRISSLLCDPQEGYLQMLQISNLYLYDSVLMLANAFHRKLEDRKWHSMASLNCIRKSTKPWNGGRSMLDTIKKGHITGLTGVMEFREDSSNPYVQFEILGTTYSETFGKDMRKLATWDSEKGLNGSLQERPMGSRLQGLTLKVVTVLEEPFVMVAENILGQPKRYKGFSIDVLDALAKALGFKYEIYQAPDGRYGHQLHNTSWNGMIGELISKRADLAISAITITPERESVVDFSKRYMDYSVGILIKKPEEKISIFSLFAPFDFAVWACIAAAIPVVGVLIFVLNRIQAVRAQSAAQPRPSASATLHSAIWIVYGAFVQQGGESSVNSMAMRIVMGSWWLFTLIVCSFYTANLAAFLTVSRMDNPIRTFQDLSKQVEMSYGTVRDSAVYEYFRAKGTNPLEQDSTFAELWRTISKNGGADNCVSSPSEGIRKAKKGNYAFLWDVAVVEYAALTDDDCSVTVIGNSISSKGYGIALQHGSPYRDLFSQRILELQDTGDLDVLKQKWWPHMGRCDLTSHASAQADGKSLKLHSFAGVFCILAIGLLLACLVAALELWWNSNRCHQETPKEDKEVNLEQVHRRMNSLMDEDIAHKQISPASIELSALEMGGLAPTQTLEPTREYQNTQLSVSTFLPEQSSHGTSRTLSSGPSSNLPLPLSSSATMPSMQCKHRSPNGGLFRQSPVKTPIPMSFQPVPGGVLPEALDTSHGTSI

GluD1-R341Q = biological target: T2, GluD1-R341Q (Homo sapiens, UniProt Q9ULK0, R341Q); assay: TEVC of constitutive current, Xenopus oocytes expressing GluD1-R341Q; format: cell-based
T2 construct: expressed in transfected cells; host or cells: Xenopus laevis oocytes injected with cRNA
T2 sequence (Q9ULK0 21-1009 R341Q): T1 sequence (Q9ULK0 21-1009 S647F) with R321Q, F627S

D-Serine effect (Baseline −10 mM D-Serine) (GluD1-S647F; 10 mM D-serine) | Effect on current, in words (GluD1-R341Q) | D-Serine effect (Baseline −10 mM D-Serine) (GluD1-R341Q; 10 mM D-serine, positive = increase, negative = decrease of activity) | Structure (SMILES) | Pentamidine effect (Baseline −100 μM Pentamidine) (GluD1-S647F; 100 μM pentamidine) | Pentamidine effect (Baseline −100 μM Pentamidine) (GluD1-R341Q; 100 μM pentamidine, positive = increase, negative = decrease of activity)
14 ± 3.8 (10) nA | insensitive | 7.2 ± 1.8 (6) nA | N[C@H](CO)C(=O)O [D-serine] |  | 
 |  |  | N=C(N)c1ccc(OCCCCCOc2ccc(C(=N)N)cc2)cc1 [Pentamidine, pentamidine] | −47 ± 11 (10) nA | 64 ± 15 (6) nA
